Measurements published in patent publication US20240059658A1 (Emory University, priority 2019, published 2024).
Like-named read-outs stand apart in the source and are kept apart here.

Tests used:
855 line = experiment: WST cytotoxicity assay, 855 line; type: cell-based; conditions: read-out: Cancer cell cytotoxicity IC50
Description: (§1) The cytotoxic effect of MX 69 and MX69 analogs on cancer cells was determined using the water-soluble tetrazolium salt (WST) assay. Briefly, cells cultured in 96-well microtiter plates were treated with different concentrations of AQ-101 for a 20-h period. WST (25 μg/well) was then added and incubation continued for an additional 4 h, after which optical density (OD) was read with a microplate reader (test wavelength of 450 nm; reference wavelength of 620 nm).

MYCN = MYCN inhibition; type: cell-based; conditions: MDM2 reduction
p53 = p53 induction / expression (Western blot); type: cell-based; conditions: for p53 induction: words or +/− grades, key not given
Description: (§2) Cells were lysed in a buffer composed of 50 mM Tris, pH 7.6, 150 mM NaCl, 1% Nonidet P-40, 10 mM sodium phosphate, 10 mM NaF, 1 mM sodium orthovanadate, 2 mM phenylmethylsulfonyl fluoride (PMSF), […], 10 μg/mL leupeptin and 10 μg/mL pepstatin. After centrifugation, the clarified cell lysate was separated from the pellet of cell debris, and then incubated with 15 μL Protein G/Protein A-agarose and 1 μg of antibodies, overnight at 4° C. For the Western blot, the resulting cell lysates or immunoprecipitates were resolved by SDS-PAGE. They were then transferred to a nitrocellulose filter and probed with the specific antibodies as listed in the supplemental Materials section. Finally, proteins were visualized with a chemiluminescent detection system.

697 cell line = experiment: WST cytotoxicity assay, 697 cell line; type: cell-based; conditions: read-out: Cancer cell cytotoxicity IC50
Description: as §1

NB-1643 = experiment: WST cytotoxicity assay, NB-1643; type: cell-based; conditions: Homo sapiens; NB-1643 line; read-out: Cancer cell cytotoxicity IC50
Description: (§3) This study used two ALL cell lines (EU-1 and EU-3) and three NB cell lines (NB-1643, SHEP1 and LA1-55N). All 5 cancer cell lines were established from pediatric ALL or NB patients and were well-characterized for their expression of MDM2 and p53-status, as reported previously. All cell lines were grown in standard culture medium (RPMI 1640 containing 10% FBS, 2 mmol/L L-glutamine, 50 U penicillin and 50 μg/mL streptomycin) at 37° C. in a humidified atmosphere containing 5% CO2.
as §1

XIAP = XIAP inhibition / expression (Western blot); type: cell-based; conditions: EU-1 cells; dose-dependent
Description: as §2

855 luc = experiment: WST cytotoxicity assay, 855 luc; type: cell-based; conditions: read-out: Cancer cell cytotoxicity IC50
Description: as §1

MDM2 RING protein = MDM2 RING protein (Homo sapiens, UniProt Q00987); experiment: Compound-protein binding (ITC) to MDM2 RING protein; conditions: MDM2 RING domain
MDM2 RING protein, sequence (Q00987 438-479 limits assumed): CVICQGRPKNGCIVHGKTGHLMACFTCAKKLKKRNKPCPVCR
Description: Isothermal titration calorimetry (ITC) assay was performed using the auto-iTC200 instrument (MicroCal, GE). MDM2 protein was loaded into a 96 DeepWell PP plate, and then compound was titrated stepwise into the protein sample cell using a syringe, for a total of 16 injections (except for the first injection, which was 0.4 μl). The equilibrium time between two adjacent injections was 210 s. The binding stoichiometry (n), binding constant (Kd), and thermodynamic parameters (ΔH and ΔS) were determined by fitting the titration curve to a one-site binding mode, using the Origin software provided by the manufacturer.

XIAP mRNA = experiment: Polysome analysis of XIAP mRNA in EU-1 cells; type: cell-based; conditions: 1 μM for 4 h
Description: Cells were incubated with 100 μg/mL cycloheximide (CHX) for 15 min to arrest polyribosome migration, and then lysed (in order to isolate cytoplasmic extracts) in a buffer containing 20 mM Tris-HCl at pH 8.0, 100 mM NaCl, 5 mM MgCl2, 0.5% Triton X-100, 500 U/mL RNAsin, and a cocktail of protease inhibitors. Fractionation was performed on a 15-45% (w/v) sucrose gradient at 39,000 rpm for 1 h (SW41Ti rotor). Fractions were collected by upward replacement in a fractionator (Isco, Lincoln, NE). The RNA from each fraction was subjected to quantitative PCR.

MDM2 [1] = biological target: T1, MDM2 (Homo sapiens, UniProt Q00987); experiment: IP-Western blot, ubiquitination of endogenous MDM2 in EU-1 cells; type: cell-based; conditions: 1 μM
T1 construct: ubiquitination of endogenous MDM2 in EU-1 cells; endogenous in cells; host or cells: EU-1 (ALL) cells
T1 sequence (Q00987 whole entry): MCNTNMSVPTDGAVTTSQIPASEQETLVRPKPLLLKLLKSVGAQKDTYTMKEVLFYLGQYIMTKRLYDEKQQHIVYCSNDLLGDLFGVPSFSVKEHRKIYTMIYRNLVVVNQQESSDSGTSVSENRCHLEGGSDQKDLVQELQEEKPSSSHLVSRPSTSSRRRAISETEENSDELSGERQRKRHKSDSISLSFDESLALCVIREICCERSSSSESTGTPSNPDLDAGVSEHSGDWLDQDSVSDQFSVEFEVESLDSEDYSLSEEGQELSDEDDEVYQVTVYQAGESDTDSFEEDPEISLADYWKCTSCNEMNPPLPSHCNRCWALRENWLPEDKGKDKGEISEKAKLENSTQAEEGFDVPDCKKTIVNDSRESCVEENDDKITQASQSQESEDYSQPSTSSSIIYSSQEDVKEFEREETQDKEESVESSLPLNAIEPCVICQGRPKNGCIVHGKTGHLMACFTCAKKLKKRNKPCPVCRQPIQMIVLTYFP
Description: as §2

caspases-3, -9 and PARP = experiment: Western blot, cleavage of caspases-3, -9 and PARP in EU-1 cells; type: cell-based; conditions: 69L52 1 μM vs MX69 5 μM
Description: as §2

MDM2 [2] = biological target: T1, MDM2; experiment: MDM2 reduction / expression (Western blot); type: cell-based
Summary of the method: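 EU-1 cell lysates (NP-40 buffer with protease/phosphatase inhibitors) resolved by SDS-PAGE directly or after overnight 4° C immunoprecipitation with Protein G/A-agarose. Blots probed with specific antibodies; chemiluminescent detection.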

p21 and PUMA = experiment: Western blot for p53 targets p21 and PUMA in EU-1 cells; type: cell-based
Description: as §2

[3] = tested on: NB cell lines NB-1643, SHEP1 and LA1-55N; experiment: WST cytotoxicity assay, NB cell lines; type: cell-based; conditions: Homo sapiens, NB-1643, SHEP1, LA1-55N, 48 h, read-out: IC50, cytotoxicity against NB cell lines
Description: as §3
as §1, with “Briefly, cells cultured in 96-well microtiter plates were treated with different concentrations of AQ-101 for a 20-h period.” left out

LA1-55N = experiment: WST cytotoxicity assay, LA1-55N; type: cell-based, human; conditions: line does not express normal p53
Description: as §3, §1

DAOY line = experiment: WST cytotoxicity assay, DAOY line; type: cell-based; conditions: Homo sapiens; DAOY line with MDM2/no p53; read-out: Cancer cell cytotoxicity IC50
Description: as §1

[4] = tested on: ALL cell lines EU-1 and EU-3; experiment: WST cytotoxicity assay, ALL cell lines; type: cell-based; conditions: Homo sapiens, 48 h, read-out: IC50, cytotoxicity against ALL cell lines
Description: as §3
as §1, with “Briefly, cells cultured in 96-well microtiter plates were treated with different concentrations of AQ-101 for a 20-h period.” left out

93-10 line = experiment: WST cytotoxicity assay, 93-10 line; type: cell-based; conditions: 93-10 line no MDM2 and p53; read-out: Cancer cell cytotoxicity IC50
Description: as §1

91-06 line = experiment: WST cytotoxicity assay, 91-06 line; type: cell-based; conditions: no MDM2 and p53, read-out: Cancer cell cytotoxicity IC50
Description: as §1

NB cell lines = experiment: Colony formation assay, NB cell lines; type: cell-based, human
Description: A clonogenic assay was used to determine the effect of MX69 analogs on in vitro growth of NB and normal human hematopoietic cells, respectively. For NB1 colony formation assay, cells were harvested with treatment by trypsinization, producing a single-cell suspension, and then 200 cells were seeded into a 6-well plate and cultured for approximately 2 weeks. Colonies were stained with a mixture of 6.0% glutaraldehyde and 0.5% crystal violet for 30 min. Then carefully removed the staining mixture, rinsed with tap water and counted the colonies.

EU-1 = experiment: WST cytotoxicity assay, cancer cell EU-1; type: cell-based, human; conditions: EU-1
Summary of the method: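 Pediatric ALL and NB lines grown in RPMI 1640 with 10% FBS at 37 °C, 5% CO2. Cells were exposed to a range of compound concentrations for 20 h, then WST (25 μg/well) was added for a further 4 h. OD read at 450 nm against a 620 nm reference.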

Cc1ccc(NS(=O)(=O)c2ccc3c(c2)C2NCC[C@H]2C(C2CCCCC2)N3)cc1C (stereo partly shown) [Compound 69L61]
IC50 (855 line): 2430 nM
MYCN inhibition (MYCN): inhibition
p53 induction (p53): No p53
IC50 (697 cell line): 3600 nM
IC50 (NB-1643): 1600 nM

Cc1ccc(NS(=O)(=O)c2ccc3c(c2)C2OCC[C@H]2C(c2ccc(C(=O)C(C)C)cc2)N3)cc1C (stereo partly shown) [Compound 69L52, N-(3,4-dimethylphenyl)-4-(4-isobutyrylphenyl)-2,3,3a,4,5,9b-hexahydrofuran[3,2-c]quinolone-8-sulfonamide]
XIAP expression (XIAP): remarkable downregulation
IC50 (855 luc): 500 nM
MDM2 binding affinity as compared with MX69 (MDM2 RING protein): Increased MDM2 Binding Affinity
Polyribosome association of XIAP mRNA (XIAP mRNA): downregulation in polyribosome association
Ubiquitination of endogenous MDM2 (MDM2 [1]): induced ubiquitination of endogenous MDM2
Cleavage of caspases-3, -9 and PARP compared with MX69 (caspases-3, -9 and PARP): stronger cleavage
Time after treatment at which MDM2 and XIAP downregulation occurred (MDM2 [2]; EU-1 cells): 2 to 4 h
MDM2 downregulation in presence of MG132 (MDM2 [2]; EU-1 cells, 1 μM for 8 h, then 10 μM MG132 4 h): blocked by MG132
MDM2 expression (MDM2 [2]; EU-1 cells, dose-dependent): remarkable downregulation
MDM2 reduction (MDM2 [2]; words or +/− grades, key not given): inhibition
p53 downstream targets p21 and PUMA (p21 and PUMA): activation
IC50 [3]: 500 to 1200 nM
Cytotoxicity to LA1-55N compared with other cell lines (LA1-55N): much less cytotoxicity
IC50 (DAOY line): 2170 nM
IC50 [4]: 300 to 400 nM
IC50 (855 line): 740 nM
IC50 (93-10 line): 5930 nM
IC50 (91-06 line): 3620 nM
p53 expression (p53; EU-1 cells, accompanying MDM2 downregulation): increased expression
p53 induction (p53): induction
Colony number and size as compared with controls (NB cell lines; NB cell lines): significant reduction
Cell growth in colony formation assay (NB cell lines; all 3 NB cell lines, two weeks): potently inhibited cell growth
IC50 (EU-1; no other cell line named in the cell, read-out: Cancer cell (EU-1) cytotoxicity IC50): 1100 to 1400 nM
IC50 (EU-1; Homo sapiens, printed in the Mouse MTD column, control run of the cytotoxicity test, read-out: Value of the compound used as (positive) control alongside the row's compound): 460 nM
IC50 (697 cell line): 450 nM
IC50 (NB-1643): 700 nM
